How the values were obtained:
[1] = biological target: human PPARγ2 (Homo sapiens (Human), UniProt P37231); assay: PPARγ activation effect, Gal4-PPARγ2 LBD luciferase transfection assay in COS7 cells; format: cell-based; conditions: Gal4-human PPARγ2 LBD chimera, luciferase reporter; for EC50: 16 hours, rosiglitazone = 100%
Procedure: The agonistic activity of the compounds of the invention on PPARγ was measured based on the transfection assay using COS7 cells (DS Pharma Biomedical Co., Ltd., Osaka, Japan), which are the cell line derived from the kidney of the African green monkey. COS7 cells were cultured under 5% CO2 concentration, and DMEM medium containing 10% fetal bovine serum, glutamic acid, and antibiotics was used as a medium.
As an expression vector, a chimera in which DNA binding domain of Gal4, which is a yeast transcription factor, and ligand binding domain of human PPARγ2 are fused, i.e., a fused product between the amino acids 1 to 147 of Gal4 transcription factor and the amino acids 182 to 505 of human PPARγ2, was used. Furthermore, as a reporter vector, a firefly luciferase containing five copies of Gal4 recognition sequence in the promoter region was used. Plasmid transfection to the cells was performed according to a method which uses jetPEI (trade name, manufactured by Funakoshi Co., Ltd., Tokyo, Japan). Furthermore, β-galactosidase expression vector was employed as an internal standard.
After the transfection into the cells, the medium was replaced with a DMEM medium (containing 1% serum) added with the test compound, and the cells were further cultured for 16 hours. After that, the luciferase activity and β-galactosidase activity in the cell lysis solution were measured.
Meanwhile, for the present test, dimethylsulfoxide (DMSO) was used for dissolution and dilution of the test compounds, and during the cell treatment, the DMSO concentration in DMEM medium (containing 1% serum) was adjusted to 0.1%. As a positive compound, rosiglitazone (trade name, manufactured by ALEXIS Corporation, Switzerland) was used. The percentage (%) of the luciferase activity of the each test compound (1 to 30 μmol/L) was calculated when the luciferase activity of rosiglitazone (3 to 10 μmol/L) is 100% and the luciferase activity in the absence of the test compound is 0%. The 50% effective concentration of the test compound (EC50, 50% effect concentration) was calculated by using SAS Preclinical Package Ver 5.0 (trade name, manufactured by SAS institute Japan Co., Tokyo, Japan), which is a statistical analysis program.

[2] = biological target: angiotensin II type 1 receptor (Oryctolagus cuniculus (Rabbit), UniProt P34976); assay: Angiotensin II antagonistic activity in isolated rabbit blood vessels (angiotensin II-induced contraction of thoracic aorta ring); conditions: test compound 0.1 μM, angiotensin II 10 nM-induced contraction, read-out: Rate (%) of inhibiting angiotensin II activity at concentration of 0.1 μM
angiotensin II type 1 receptor, sequence (P34976 whole entry): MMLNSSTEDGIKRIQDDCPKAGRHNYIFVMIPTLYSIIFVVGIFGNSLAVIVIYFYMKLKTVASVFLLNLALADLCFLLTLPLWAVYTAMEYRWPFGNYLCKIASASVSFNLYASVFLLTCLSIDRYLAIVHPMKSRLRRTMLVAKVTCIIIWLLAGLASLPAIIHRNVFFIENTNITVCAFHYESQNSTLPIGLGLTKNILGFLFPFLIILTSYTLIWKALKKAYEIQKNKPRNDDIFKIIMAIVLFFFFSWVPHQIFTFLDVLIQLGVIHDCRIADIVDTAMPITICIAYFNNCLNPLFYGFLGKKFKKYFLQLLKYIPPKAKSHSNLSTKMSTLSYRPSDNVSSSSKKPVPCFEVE
Procedure: By using a specimen of isolated rabbit blood vessels, antagonistic activity of the compounds of the invention against angiotensin II type 1 receptor was calculated from a dose-response curve of angiotensin II-induced blood vessel contraction. Specifically, the specimen of thoracic aorta ring of a rabbit (New Zealand White: male, 2.4 to 3.0 kg) was suspended in a rmagnus bath filled with Krebs-Henseleite buffer (composition: 118 mM NaCl, 4.7 mM KCl, 2.55 mM CaCl2, 1.18 mM MgSO4, 1.18 mM KH2PO4, 24.88 mM NaHCO3, and 11.1 mM D-glucose), and angiotensin II (10 n M)-induced contraction was obtained in the presence of each test compound (1 n mol/L to 10 μmol/L). During the measurement, the inside temperature of the magnus bath was maintained at 37° C. and the bath was continuously ventilated with a sufficient amount of mixed gas (95% O2 and 5% CO2). The angiotensin II-induced contraction was converted into a relative value (%) that is based on the angiotensin II (0.1 μM)-induced contraction in the absence of the test compound.

human PPARγ2, sequence (P37231 182-505): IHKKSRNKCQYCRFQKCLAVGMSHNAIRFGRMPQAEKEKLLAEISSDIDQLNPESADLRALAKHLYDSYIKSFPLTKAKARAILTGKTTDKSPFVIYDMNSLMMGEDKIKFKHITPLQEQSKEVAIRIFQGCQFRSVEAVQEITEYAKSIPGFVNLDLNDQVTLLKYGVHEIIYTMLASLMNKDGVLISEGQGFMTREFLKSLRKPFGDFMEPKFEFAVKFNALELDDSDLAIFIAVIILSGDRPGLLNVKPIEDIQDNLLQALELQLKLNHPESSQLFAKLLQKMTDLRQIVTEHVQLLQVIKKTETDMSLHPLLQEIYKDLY

Structure (SMILES) | % MAX vs Rosiglitazone (maximum activity strength relative to the maximum activity of rosiglitazone) [1] [%] | EC50 [1] [nM] | inhibition at 0.1 µM [2] [%]
CCCCCc1nc(C2CC2)n(-c2ncc(OCC)cn2)c(=O)c1Cc1ccc(-c2ccccc2-c2noc(=O)[nH]2)nc1 [Example 43, 3-{2-{5-{[2-cyclopropyl-1-(5-ethoxypyrimidin-2-yl)-6-oxo-4-pentyl-1,6-dihydropyrimidin-5-yl]methyl}pyridin-2-yl}phenyl}-1,2,4-oxadiazol-5(4H)-one] | 42 | 590 | –
CCCCCc1nc(C(C)C)n(-c2ncc(OCC)cn2)c(=O)c1Cc1ccc(-c2ccccc2-c2noc(=O)[nH]2)nc1 [Example 42, 3-{2-{5-{[1-(5-ethoxypyrimidin-2-yl)-2-isopropyl-6-oxo-4-pentyl-1,6-dihydropyrimidin-5-yl]methyl}pyridin-2-yl}phenyl}-1,2,4-oxadiazol-5(4H)-one] | 53 | 650 | –
CCCc1nc(C2CC2)n(-c2ncc(OCC)cn2)c(=O)c1Cc1ccc(-c2ccccc2-c2noc(=O)[nH]2)nc1 [Example 41, 3-{2-{5-{[2-cyclopropyl-1-(5-ethoxypyrimidin-2-yl)-6-oxo-4-propyl-1,6-dihydropyrimidin-5-yl]methyl}pyridin-2-yl}phenyl}-1,2,4-oxadiazol-5(4H)-one] | 65 | 560 | 89.9
CCCc1nc(C(C)C)n(-c2ncc(OCC)cn2)c(=O)c1Cc1ccc(-c2ccccc2-c2noc(=O)[nH]2)nc1 [Example 40, 3-{2-{5-{[1-(5-ethoxypyrimidin-2-yl)-2-isopropyl-6-oxo-4-propyl-1,6-dihydropyrimidin-5-yl]methyl}pyridin-2-yl}phenyl}-1,2,4-oxadiazol-5(4H)-one] | 69 | 400 | 68.3
CCCc1nc2c(C)cc(-c3nc4ccccc4n3C)cc2n1Cc1ccc(-c2ccccc2C(=O)O)cc1 [telmisartan, reference compound] | – | – | 85.3

Reference: US9315493B2, “Phenylpyridine derivative and drug containing same” (KOWA COMPANY, LTD., priority 2011, dated 2016)
